Test results reported in US20210309649A1, “SUBSTITUTED GLUTARIMIDE DERIVATIVES” (BASF SE, priority 2018, published 2021).

Key:
Format in all cases: in vivo
[1] = tested on: Anthonomus grandis; assay: Boll weevil (Anthonomus grandis) insect diet test; conditions: 120 h, read-out: mortality in comparison with untreated controls
Protocol: For evaluating control of boll weevil (Anthonomus grandis) the test unit consisted of 96-well-microtiter plates containing an insect diet and 5-10 A. grandis eggs.
The compounds were formulated using a solution containing 75% v/v water and 25% v/v DMSO. Different concentrations of formulated compounds were sprayed onto the insect diet at 5 μl, using a custom built micro atomizer, at two replications.
After application, microtiter plates were incubated at about 25±1° C. and about 75±5% relative humidity for 5 days. Egg and larval mortality was then visually assessed.

[2] = tested on: Tetranychus kanzawai; assay: Red spider mite (Tetranychus kanzawai) cowpea bean spray test; conditions: 72 h, read-out: mortality in comparison with untreated controls
Protocol: The active compound was dissolved at the desired concentration in a mixture of 1:1 (vol:vol) distilled water:acetone. Add surfactant (Kinetic HV) was added at a rate of 0.01% (vol/vol). The test solution was prepared at the day of use.
Potted cowpea beans of 4-5 days of age were cleaned with tap water and sprayed with 1-2 ml of the test solution using air driven hand atomizer. The treated plants were allowed to air dry and afterwards inoculated with 30 or more mites by clipping a cassava leaf section from rearing population. Treated plants were placed inside a holding room at about 25-27° C. and about 50-60% relative humidity. Percent mortality was assessed 72 hours after treatment.

[3] = tested on: Spodoptera eridania; assay: Southern armyworm (Spodoptera eridania) lima bean foliar spray test; conditions: 96 h, read-out: mortality in comparison with untreated controls
Protocol: The active compounds were formulated in cyclohexanone as a 10,000 ppm solution supplied in tubes. The tubes were inserted into an automated electrostatic sprayer equipped with an atomizing nozzle and they served as stock solutions for which lower dilutions were made in 50% acetone:50% water (v/v). A nonionic surfactant (Kinetic®) was included in the solution at a volume of 0.01% (v/v).
Lima bean plants (variety Sieva) were grown 2 plants to a pot and selected for treatment at the 1st true leaf stage. Test solutions were sprayed onto the foliage by an automated electrostatic plant sprayer equipped with an atomizing spray nozzle. The plants were dried in the sprayer fume hood and then removed from the sprayer. Each pot was placed into perforated plastic bags with a zip closure. About 10 to 11 armyworm larvae were placed into the bag and the bags zipped closed. Test plants were maintained in a growth room at about 25° C. and about 20-40% relative humidity for 4 days, avoiding direct exposure to fluorescent light (24 hour photoperiod) to prevent trapping of heat inside the bags. Mortality and reduced feeding were assessed 4 days after treatment, compared to untreated control plants.

[4] = tested on: Euschistus heros; assay: Neotropical brown stink bug (Euschistus heros) soybean pod spray test; conditions: 120 h, read-out: mortality in comparison with untreated controls
Protocol: (§1) The active compound was dissolved at the desired concentration in a mixture of 1:1 (vol:vol) distilled water:acetone. Surfactant (Kinetic HV) was added at a rate of 0.01% (vol/vol). The test solution was prepared at the day of use.
Soybean pods were placed in microwavable plastic cups and inoculated with ten adult stage E. heros. Using a hand atomizer, approximately 1 ml solution is sprayed into each cup, insects and food present. A water source was provided (cotton wick with water). Each treatment was replicated 2-fold. Assay arenas were kept at about 25° C. Percent mortality was recorded after 5 days.

[5] = tested on: Nezara viridula; assay: Green soldier stink bug (Nezara viridula) soybean pod spray test; conditions: 120 h, read-out: mortality in comparison with untreated controls
Protocol: The active compound was dissolved at the desired concentration in a mixture of 1:1 (vol:vol) distilled water:acetone. Surfactant (Kinetic HV) was added at a rate of 0.01% (vol/vol). The test solution was prepared at the day of use. Soybean pods were placed in glass Petri dishes lined with moist filter paper and inoculated with ten late 3rd instar N. viridula. Using a hand atomizer, approximately 2 ml solution is sprayed into each Petri dish. Assay arenas were kept at about 25° C. Percent mortality was recorded after 5 days.

[6] = tested on: Heliothis virescens; assay: Tobacco budworm (Heliothis virescens) insect diet test; conditions: 120 h, read-out: mortality in comparison with untreated controls
Protocol: For evaluating control of tobacco budworm (Heliothis virescens) the test unit consisted of 96-well-microtiter plates containing an insect diet and 15-25 H. virescens eggs.
The compounds were formulated using a solution containing 75% v/v water and 25% v/v DMSO. Different concentrations of formulated compounds were sprayed onto the insect diet at 10 μl, using a custom built micro atomizer, at two replications.
After application, microtiter plates were incubated at about 28±1° C. and about 80±5% relative humidity for 5 days. Egg and larval mortality was then visually assessed.

[7] = tested on: Dichromothrips corbetti; assay: Orchid thrips (Dichromothrips corbetti) floral-immersion test; conditions: 72 h, read-out: mortality in comparison with untreated controls
Protocol: Dichromothrips corbetti adults used for bioassay were obtained from a colony maintained continuously under laboratory conditions. For testing purposes, the test compound is diluted in a 1:1 mixture of acetone:water (vol:vol), plus Kinetic HV at a rate of 0.01% v/v.
Thrips potency of each compound was evaluated by using a floral-immersion technique. All petals of individual, intact orchid flowers were dipped into treatment solution and allowed to dry in Petri dishes. Treated petals were placed into individual re-sealable plastic along with about 20 adult thrips. All test arenas were held under continuous light and a temperature of about 28° C. for duration of the assay. After 3 days, the numbers of live thrips were counted on each petal. The percent mortality was recorded 72 hours after treatment.

[8] = tested on: Nephotettix virescens; assay: Rice green leafhopper (Nephotettix virescens) rice seedling spray test; conditions: 72 h, read-out: mortality in comparison with untreated controls
Protocol: Rice seedlings were cleaned and washed 24 hours before spraying. The active compounds were formulated in 1:1 acetone:water (vol:vol), and 0.01% vol/vol surfactant (Kinetic HV) was added. Potted rice seedlings were sprayed with 5-6 ml test solution, air dried, covered with Mylar cages and inoculated with 10 adults. Treated rice plants were kept at about 28-29° C. and relative humidity of about 50-60%. Percent mortality was recorded after 72 hours.

[9] = tested on: Megoura viciae; assay: Vetch aphid (Megoura viciae) leaf disk test; conditions: foliar, 120 h, read-out: mortality in comparison with untreated controls
Protocol: For evaluating control of vetch aphid (Megoura viciae) through contact or systemic means the test unit consisted of 24-well-microtiter plates containing broad bean leaf disks.
The compounds were formulated using a solution containing 75% v/v water and 25% v/v DMSO. Different concentrations of formulated compounds were sprayed onto the leaf disks at 2.5 μl, using a custom built micro atomizer, at two replications.
After application, the leaf disks were air-dried and 5-8 adult aphids placed on the leaf disks inside the microtiter plate wells. The aphids were then allowed to suck on the treated leaf disks and incubated at about 23±1° C. and about 50±5% relative humidity for 5 days. Aphid mortality and fecundity was then visually assessed.

[10] = tested on: Plutella xylostella; assay: Diamond back moth (Plutella xylostella) cabbage leaf dip test; conditions: foliar, 72 h, read-out: mortality in comparison with untreated controls
Protocol: The active compound was dissolved at the desired concentration in a mixture of 1:1 (vol:vol) distilled water:aceteone. Surfactant (Kinetic HV) was added at a rate of 0.01% (vol/vol). The test solution was prepared at the day of use.
Leaves of cabbage were dipped in test solution and air-dried. Treated leaves were placed in petri dishes lined with moist filter paper and inoculated with ten 3rd instar larvae. Mortality was recorded 72 hours after treatment. Feeding damages were also recorded using a scale of 0-100%.

[11] = tested on: Myzus persicae; assay: Green peach aphid (Myzus persicae) systemic artificial diet test; conditions: 72 h, read-out: mortality in comparison with untreated controls
From the text: For evaluating control of green peach aphid (Myzus persicae) through systemic means the test unit consisted of 96-well-microtiter plates containing liquid artificial diet under an artificial mem brane.
The compounds were formulated using a solution containing 75% v/v water and 25% v/v DMSO. Different concentrations of formulated compounds were pipetted into the aphid diet, using a custom built pipetter, at two replications.
After application, 5-8 adult aphids were placed on the artificial membrane inside the microtiter plate wells. The aphids were then allowed to suck on the treated aphid diet and incubated at about 23±1° C. and about 50±5% relative humidity for 3 days. Aphid mortality and fecundity was then visually assessed.

[12] = tested on: Halyomorpha halys; assay: Brown marmorated stink bug (Halyomorpha halys) spray test; conditions: in Glycine max, 120 h, read-out: mortality in comparison with untreated controls
Protocol: as §1
Row peanuts and soybean seeds were placed into microwavable plastic cups and inoculated with five adult stage H. halys. Using a hand atomizer, approximately 1 ml solution is sprayed into each cup, insects and food present. A water source was provided (cotton wick with water).
Each treatment is replicated 4-fold. Assay arenas are kept at about 25° C. Percent mortality was recorded after 5 days.

CN1C(=O)CC[C@@H](NC(=O)c2ccc(C3=NOC(c4cc(Cl)c(F)c(Cl)c4)(C(F)(F)F)C3)cc2Cl)C1=O (stereo partly drawn) [Compound 1-1, 2-chloro-4[5-(3,5-dichloro-4-fluoro-phenyl)-5-(trifluoromethyl)-4H-isoxazol-3-yl]-N-[(3R)-1-methyl-2,6-dioxo-3-piperidyl]benzamide]
> 75%: mortality at 2500 ppm [1] | mortality at 300 ppm [2] | mortality at 10 ppm [3] | mortality at 500 ppm [4] | mortality at 300 ppm [5] | mortality at 2500 ppm [6] | mortality at 300 ppm [7] | mortality at 300 ppm [8] | mortality at 2500 ppm [9] | mortality at 300 ppm [10] | mortality at 2500 ppm [11] | mortality at 100 ppm [12]

Cc1cc(C2=NOC(c3cc(Cl)cc(Cl)c3)(C(F)(F)F)C2)ccc1C(=O)N[C@@H]1CCC(=O)N(CC(F)F)C1=O (stereo partly drawn) [Compound 1-18, 4-[5-(3,5-dichlorophenyl)-5-(trifluoromethyl)-4H-isoxazol-3-yl]-N-[(3R)-1-(2,2-difluoroethyl)-2,6-dioxo-3-piperidyl]-2-methyl-benzamide]
> 75%: mortality at 2500 ppm [1] | mortality at 300 ppm [2] | mortality at 500 ppm [4] | mortality at 300 ppm [5] | mortality at 2500 ppm [6] | mortality at 300 ppm [7] | mortality at 300 ppm [8] | mortality at 2500 ppm [9] | mortality at 300 ppm [10] | mortality at 2500 ppm [11] | mortality at 100 ppm [12]
